Counter-ions that a name gives are not always drawn.
Assays:
normal human plasma = assay: Anticoagulant activity, partial thromboplastin time (APTT) assay; type: biochemical; settings: for Anticoagulation Activity (APTT) Relative to Heparin: ratio >1 indicates weaker activity relative to heparin on a μg/mL comparison
Description: A BBL Fibrometer automatic precesion coagulation timer utilizing a 0.3 mL probe was employed. An Ellagic acid activated partial thromboplastin was used for these experiments. This reagent was added to human citrated plasma equilibrated at 37° C. in a plastic well in the clot timer. Calcium at 37° C. was added, the clot timer was started and the time for fibrin clot formation (in seconds) was recorded. […] Clotting tests at all concentrations were run in triplicate. Analysis of variance for a randomized block design was used to determine the significance of differences observed in the clotting times.

[1] = system: Porcine Smooth Muscle Cell; assay: Porcine smooth muscle cell antiproliferation, 3H thymidine incorporation; type: cell-based; settings: for IC50: porcine aortic smooth muscle cells, 3H thymidine incorporation
Description: Cells were assayed in early passage (generally passage 3-7) at sub-confluent conditions. […] At sub-confluence, the cells were placed in a defined serum free medium (AIM-V; Gibco) for 24-48 h prior to initiating the experimental protocol.
At the completion of the experiment, plates were placed on ice, washed three times with ice cold PBS and incubated in ice cold 10% trichloroacetic acid (TCA) for 30 min to remove acid soluble proteins. Solution was transferred to scintillation vials containing 0.4N HCl (500 μL/vial to neutralize NaOH) and each well was rinsed two times with water (500 μL) for a total volume of 2 mL/vial.
Data was obtained, in triplicate, for both control and experimental samples. […] Experimental data was obtained from cells maximally stimulated with growth factor or serum and treated with compound. Data was expressed as a percent of control from which IC50 s could be determined.

human endothelial cell = assay: Effect on endothelial cell growth vs. smooth muscle cell proliferation; type: cell-based; settings: driven by 2% FBS, at doses inhibitory towards human SMC proliferation driven by 10% FBS; FIG. 1
Source text: The ability of the compounds of the present invention to inhibit smooth muscle cell proliferation and modulate endothelial cell growth was established using isolated aortic cells obtained from commercial sources or, for certain species, prepared in-house. Cell lines used in this study include human and porcine aortic smooth muscle cells and human aortic endothelial cells. Human aortic cell lines were obtained from Clonetics Corporation (San Diego).
B. Effects of compounds on cell proliferation using ^3 H Thymidine incorporation
Cells were assayed in early passage (generally passage 3-7) at sub-confluent conditions. Cultures were grown in 16 mm (24 well) multi-well culture dishes in media 199 supplemented with 10% fetal bovine serum and 2% antibiotic/antimycotic. At sub-confluence, the cells were placed in a defined serum free medium (AIM-V; Gibco) for 24-48 h prior to initiating the experimental protocol.
Growth factor and serum stimulations were optimized for each cell type.
Compounds were added to each well at 50 fold dilution (20 μL/well) and the plates were incubated for 24-36 h at 37° C. in 5% CO2. […] Compounds were routinely assayed at 1, 10, and 100 μM. […]
Data was obtained, in triplicate, for both control and experimental samples. […] Data was expressed as a percent of control from which IC50 s could be determined. […]

Compound	Anticoagulation Activity (APTT) Relative to Heparin (normal human plasma)	other results
O=C(Nc1cc(CO[C@@H]2O[C@H](COS(=O)(=O)O)[C@@H](O[C@@H]3O[C@H](COS(=O)(=O)O)[C@@H](OS(=O)(=O)O)[C@H](OS(=O)(=O)O)[C@H]3OS(=O)(=O)O)[C@H](OS(=O)(=O)O)[C@H]2OS(=O)(=O)O)cc(CO[C@@H]2O[C@H](COS(=O)(=O)O)[C@@H](O[C@@H]3O[C@H](COS(=O)(=O)O)[C@@H](OS(=O)(=O)O)[C@H](OS(=O)(=O)O)[C@H]3OS(=O)(=O)O)[C@H](OS(=O)(=O)O)[C@H]2OS(=O)(=O)O)c1)c1ccc(-c2ccc(C(=O)Nc3cc(CO[C@@H]4O[C@H](COS(=O)(=O)O)[C@@H](O[C@@H]5O[C@H](COS(=O)(=O)O)[C@@H](OS(=O)(=O)O)[C@H](OS(=O)(=O)O)[C@H]5OS(=O)(=O)O)[C@H](OS(=O)(=O)O)[C@H]4OS(=O)(=O)O)cc(CO[C@@H]4O[C@H](COS(=O)(=O)O)[C@@H](O[C@@H]5O[C@H](COS(=O)(=O)O)[C@@H](OS(=O)(=O)O)[C@H](OS(=O)(=O)O)[C@H]5OS(=O)(=O)O)[C@H](OS(=O)(=O)O)[C@H]4OS(=O)(=O)O)c3)cc2)cc1 [EXAMPLE 15, Biphenyl-4,4'-dicarboxylic Acid Bis{[3,5-bis(hepta-O-sulfato-β-D-cellobiosyloxymethyl)phenyl]amide}Octacosasodium Salt]	2.0-2.3	–
O=C(CCC(=O)Nc1cc(CO[C@@H]2O[C@H](COS(=O)(=O)O)[C@@H](O[C@@H]3O[C@H](COS(=O)(=O)O)[C@@H](OS(=O)(=O)O)[C@H](OS(=O)(=O)O)[C@H]3OS(=O)(=O)O)[C@H](OS(=O)(=O)O)[C@H]2OS(=O)(=O)O)cc(CO[C@@H]2O[C@H](COS(=O)(=O)O)[C@@H](O[C@@H]3O[C@H](COS(=O)(=O)O)[C@@H](OS(=O)(=O)O)[C@H](OS(=O)(=O)O)[C@H]3OS(=O)(=O)O)[C@H](OS(=O)(=O)O)[C@H]2OS(=O)(=O)O)c1)Nc1cc(CO[C@@H]2O[C@H](COS(=O)(=O)O)[C@@H](O[C@@H]3O[C@H](COS(=O)(=O)O)[C@@H](OS(=O)(=O)O)[C@H](OS(=O)(=O)O)[C@H]3OS(=O)(=O)O)[C@H](OS(=O)(=O)O)[C@H]2OS(=O)(=O)O)cc(CO[C@@H]2O[C@H](COS(=O)(=O)O)[C@@H](O[C@@H]3O[C@H](COS(=O)(=O)O)[C@@H](OS(=O)(=O)O)[C@H](OS(=O)(=O)O)[C@H]3OS(=O)(=O)O)[C@H](OS(=O)(=O)O)[C@H]2OS(=O)(=O)O)c1 [EXAMPLE 22, N,N'-Bis[3,5-bis(hepta-O-sulfato-β-D-cellobiosyloxymethyl)phenyl]succinamide Octacosasodium Salt]	2.0	–
Cc1ccc(CO[C@@H]2O[C@H](COS(=O)(=O)O)[C@@H](OS(=O)(=O)O)[C@H](OS(=O)(=O)O)[C@H]2OS(=O)(=O)O)cc1NC(=O)CCC(=O)Nc1cc(CO[C@@H]2O[C@H](COS(=O)(=O)O)[C@@H](OS(=O)(=O)O)[C@H](OS(=O)(=O)O)[C@H]2OS(=O)(=O)O)ccc1C [EXAMPLE 25, N,N'-Bis[2-methyl-5-(2,3,4,6-tetra-O-suifato-β-D-glucopyranosyloxymethyl)phenyl]succinamide Octasodium Salt]	–	inhibition at 50 µg/mL ([1]; Sus scrofa, read-out: Porcine Smooth Muscle Cell Antiproliferation, % Inhibition at 50 μg/mL): 8%
Decanedioic Acid Bis{[3,5-bis(hepta-O-sulfato-β-D-cellobiosyloxymethyl}phenyl]amide} Octacosasodium Salt [EXAMPLE 14]	6.7	IC50 [1]: 3 µM
O=C(Nc1cc(CO[C@@H]2O[C@H](COS(=O)(=O)O)[C@@H](O[C@H]3O[C@H](COS(=O)(=O)O)[C@@H](OS(=O)(=O)O)[C@H](OS(=O)(=O)O)[C@H]3OS(=O)(=O)O)[C@H](OS(=O)(=O)O)[C@H]2OS(=O)(=O)O)cc(CO[C@@H]2O[C@H](COS(=O)(=O)O)[C@@H](O[C@H]3O[C@H](COS(=O)(=O)O)[C@@H](OS(=O)(=O)O)[C@H](OS(=O)(=O)O)[C@H]3OS(=O)(=O)O)[C@H](OS(=O)(=O)O)[C@H]2OS(=O)(=O)O)c1)c1ccc(-c2ccc(C(=O)Nc3cc(CO[C@@H]4O[C@H](COS(=O)(=O)O)[C@@H](O[C@H]5O[C@H](COS(=O)(=O)O)[C@@H](OS(=O)(=O)O)[C@H](OS(=O)(=O)O)[C@H]5OS(=O)(=O)O)[C@H](OS(=O)(=O)O)[C@H]4OS(=O)(=O)O)cc(CO[C@@H]4O[C@H](COS(=O)(=O)O)[C@@H](O[C@H]5O[C@H](COS(=O)(=O)O)[C@@H](OS(=O)(=O)O)[C@H](OS(=O)(=O)O)[C@H]5OS(=O)(=O)O)[C@H](OS(=O)(=O)O)[C@H]4OS(=O)(=O)O)c3)cc2)cc1 [EXAMPLE 18]	2.1	effect on human endothelial cell growth (human endothelial cell): enhance human endothelial cell growth
O=C(Nc1cc(CO[C@@H]2O[C@H](COS(=O)(=O)O)[C@@H](O[C@@H]3O[C@H](COS(=O)(=O)O)[C@@H](OS(=O)(=O)O)[C@H](OS(=O)(=O)O)[C@H]3OS(=O)(=O)O)[C@H](OS(=O)(=O)O)[C@H]2OS(=O)(=O)O)cc(CO[C@@H]2O[C@H](COS(=O)(=O)O)[C@@H](O[C@@H]3O[C@H](COS(=O)(=O)O)[C@@H](OS(=O)(=O)O)[C@H](OS(=O)(=O)O)[C@H]3OS(=O)(=O)O)[C@H](OS(=O)(=O)O)[C@H]2OS(=O)(=O)O)c1)c1ccc(C(=O)Nc2cc(CO[C@@H]3O[C@H](COS(=O)(=O)O)[C@@H](O[C@@H]4O[C@H](COS(=O)(=O)O)[C@@H](OS(=O)(=O)O)[C@H](OS(=O)(=O)O)[C@H]4OS(=O)(=O)O)[C@H](OS(=O)(=O)O)[C@H]3OS(=O)(=O)O)cc(CO[C@@H]3O[C@H](COS(=O)(=O)O)[C@@H](O[C@@H]4O[C@H](COS(=O)(=O)O)[C@@H](OS(=O)(=O)O)[C@H](OS(=O)(=O)O)[C@H]4OS(=O)(=O)O)[C@H](OS(=O)(=O)O)[C@H]3OS(=O)(=O)O)c2)cc1 [EXAMPLE 23, N,N '-Bis[3,5-bis(hepta-O-sulfato-β-D-cellobiosyloxymethyl)phenyl]terephthalamide Octacosasodium Salt]	2.0	–
O=C(Nc1cc(CO[C@@H]2O[C@H](COS(=O)(=O)O)[C@@H](OS(=O)(=O)O)[C@H](OS(=O)(=O)O)[C@H]2OS(=O)(=O)O)cc(CO[C@@H]2O[C@H](COS(=O)(=O)O)[C@@H](OS(=O)(=O)O)[C@H](OS(=O)(=O)O)[C@H]2OS(=O)(=O)O)c1)c1ccc(-c2ccc(C(=O)Nc3cc(CO[C@@H]4O[C@H](COS(=O)(=O)O)[C@@H](OS(=O)(=O)O)[C@H](OS(=O)(=O)O)[C@H]4OS(=O)(=O)O)cc(CO[C@@H]4O[C@H](COS(=O)(=O)O)[C@@H](OS(=O)(=O)O)[C@H](OS(=O)(=O)O)[C@H]4OS(=O)(=O)O)c3)cc2)cc1 [EXAMPLE 17, Biphenyl-4,4'-dicarboxylic Acid Bis{[3,5-bis(tetra-O-sulfato-β-D-glucosyloxymethyl)phenyl]amide}Hexadecasodium Salt]	–	Anticoagulation Activity (APTT), result in words (normal human plasma; at 50 μg/mL): insignificant activity
O=C(Nc1cc(CO[C@@H]2O[C@H](COS(=O)(=O)[O-])[C@@H](O[C@@H]3O[C@H](COS(=O)(=O)[O-])[C@H](OS(=O)(=O)[O-])[C@H](OS(=O)(=O)[O-])[C@H]3OS(=O)(=O)[O-])[C@H](OS(=O)(=O)[O-])[C@H]2OS(=O)(=O)[O-])cc(CO[C@@H]2O[C@H](COS(=O)(=O)[O-])[C@@H](O[C@@H]3O[C@H](COS(=O)(=O)[O-])[C@H](OS(=O)(=O)[O-])[C@H](OS(=O)(=O)[O-])[C@H]3OS(=O)(=O)[O-])[C@H](OS(=O)(=O)[O-])[C@H]2OS(=O)(=O)[O-])c1)c1ccc(-c2ccc(C(=O)Nc3cc(CO[C@@H]4O[C@H](COS(=O)(=O)[O-])[C@@H](O[C@@H]5O[C@H](COS(=O)(=O)[O-])[C@H](OS(=O)(=O)[O-])[C@H](OS(=O)(=O)[O-])[C@H]5OS(=O)(=O)[O-])[C@H](OS(=O)(=O)[O-])[C@H]4OS(=O)(=O)[O-])cc(CO[C@@H]4O[C@H](COS(=O)(=O)[O-])[C@@H](O[C@@H]5O[C@H](COS(=O)(=O)[O-])[C@H](OS(=O)(=O)[O-])[C@H](OS(=O)(=O)[O-])[C@H]5OS(=O)(=O)[O-])[C@H](OS(=O)(=O)[O-])[C@H]4OS(=O)(=O)[O-])c3)cc2)cc1.[Na+].[Na+].[Na+].[Na+].[Na+].[Na+].[Na+].[Na+].[Na+].[Na+].[Na+].[Na+].[Na+].[Na+].[Na+].[Na+].[Na+].[Na+].[Na+].[Na+].[Na+].[Na+].[Na+].[Na+].[Na+].[Na+].[Na+].[Na+] [EXAMPLE 16, Biphenyl-4,4'-dicarboxylic Acid Bis{[3,5-bis(hepta-O-sulfato-β-D-lactosyloxymethyl)phenyl]amide}Octacosasodium Salt]	2.2	IC50 [1]: 3.6 µM

From patent publication US5498775A, “Polyanionic benzylglycosides as inhibitors of smooth muscle cell proliferation” (American Home Products Corporation, priority 1994, dated 1996)
